Where two headings read alike, the source gives them in different places.
Experiments:
[1] = Human Skin Penetration Assays (Franz-cell, HTS station); format: in vitro ADME; conditions: 8 hours of exposure
Experimental: To examine the penetration ability of SPG-003 formulation, two different assays were conducted. The SPG-003 formulation was prepared by adding SPG-003 (final concentration 1.0% by weight) to a mixture comprising 30% denatured alcohol. 49% IPM, 20% Transcutol and sonicaing this mixture until the compound was dissolved.
Human cadaver skin tissue was purchased from a tissue bank in the U.S. Two lots of the dermatomed skin tissue were used. Donor demographics: tissue 08033 (average thickness: 397 μm): […], […], […], and anatomical site=abdomen; tissue 08696 (average thickness; 1,040 μm): […], […], […], and anatomical site=abdomen. The thickness was measured using a digital snap gage. Duplicate for each donor (N=2). The tissue was received in dry ice packaging. It was stored at −20° C. until use.
After passing initial visual inspection, barrier integrity of the skin tissue was evaluated using transepidermal electrical resistance measurement (TEER measurement). […] Prior to the skin absorption and penetration study, electrical resistance value for each lot of human skin tissue was evaluated. […] Transepidermal electrical resistance value (TEER measurement, Z value) was measured. […] It was determined that the threshold TEER value was 6.0 KOhms for donor 08033 and 10 KOhms for donor 08696. […]
The data collection time point was 8 hours. […] The extracts were collected and ready for analysis. […]

[2] = tested on: MDA-kb2 mammary gland breast cancer cell line; conditions: human, 24 h
Experimental: For the MDA-kb2 assay, MDA-kb2 mammary gland breast cancer cell line was maintained in L-15 media (Gibco) supplemented with 10% FBS, 100 U/mL penicillin, 100 μg/mL streptomycin, and 0.25 μg/mL amphotericin B at 37° C., without CO2. For experiments, cells were plated at 1.0×10^4 cells (50% confluence) per well in 100 μL of medium in 96-well plates. When cells were attached (after 6 hours), medium was removed and replaced with dosing medium containing 10% charcoal stripped FBS.
A 5α-Androstan-17β-ol-3-one (DHT) stock solution was prepared at 1,000× in ethanol. Each ARE tested was prepared in DMSO. Dosing medium was prepared at the time of treatment by serial diluting stock solution into medium. Ethanol concentrations in media never exceeded 0.1%. […] Negative control wells contained 100 μL medium/well with 1 μL of ethanol/mL of medium and an appropriate amount of DMSO. Each plate also contained 1.0 nM DHT with an ARE or without an ARE as a positive control. Cells were incubated 24 hours at 37° C. without CO2.
To assess for cell viability, cells were first visually examined under a phase-contrast microscope to record cell confluence, morphological changes, and presence of drug crystallization as well as to observe signs of cytotoxity such as, e.g., detachment, vacuolization, membrane degradation, or lack of phase brightness. After microscopic inspection, a Trypan Blue exclusion assay was performed to assess cell viability and cell number for each well. Each well was washed with 0.5 mL volume of PBS. 30 µL of Trypan Blue was added to each well for 5-10 minutes. Total cell number and total viable cell number will be counted from 1 number of fields per well, in triplicate.

in vitro = conditions: human
Experimental: For the Keratinocyte assay, normal Human Adult Primary Epidermal Keratinocyte cell line (ATCC PCS-200-011) was maintained in EPIUFE® Medium, with 60 μM calcium (Thermo MEPISOOCA) supplemented with Human Keratinocyte Growth Supplement, 100 U/mL penicillin, and 100 μg/mL streptomycin at 37° C. with 5% C02. For experiments, cells were seeded at 70% confluence per well in 100 μL of medium in 96-well plates. Reverse transfection was done on the cells using Lipofectamine 3000 (Life Technologies) with plasmids according to manufacturer's instructions. Briefly, 0.3 μL transfection reagent per 100 ng DNA were incubated with P3000 reagent and Opti-Mem prior to addition of cells. After 16 hours, medium was removed and replaced with dosing medium.
Each ARE tested was prepared in DMSO. Dosing medium was prepared at the time of treatment by serial diluting stock solution into medium. Ethanol concentrations in media never exceeded 0.1%. […] Negative control wells contained 100 L medium/well with 1 μL of ethanol/mL of medium and an appropriate amount of DMSO. […] Cells were incubated 72 hours at 37° C. without CO2.

Compound: CC12CCC(=O)C=C1C[C@@H](SC(=O)CC13CC4CC(CC(C4)C1)C3)C1C2CCC2(C)C1CC[C@@]21CCC(=O)O1 (stereo partly shown) [SPG-003]
- skin penetration (in words) [1]: limited amount
- skin retention in epidermis and dermis (in words) [1]: good amount
- Cell Viability ([2]; 0.1 μM): 98%
- Cell Viability ([2]; 1 μM): 99%
- Cell Viability ([2]; 3 μM): 98%
- Cell Viability ([2]; 10 μM): 98%
- IC50 at 72 h (in vitro): ~50 µM

Source: patent publication US12319681B2, “Tripartite androgen receptor eliminators, methods and uses thereof” (SPG Therapeutics, Inc., priority 2017, dated 2025)
